Values after ≈ are worked out from the molar mass of the structure shown.
Columns and labels:
[1] = CIMA assay (tetrazolium reduction, cell viability, 72 h); type: cell-based, human; conditions: human
Description: (§1) Prepared extracts were assessed following chronic exposure conditions in which cells were seeded at 2×10^3 cells/well (96 wells-plate) and incubated with test compounds for 72 h. Each compound was evaluated over a range of concentrations (0, 10, 25, 50 or 100 μg/ml). Cell proliferation was initially assessed using a standard colorimetric indicator of metabolic activity (CIMA) assay. In this assay, tetrazole reduction was evaluated as a measure of metabolic function that evaluates mitochondrial activity to determine the extent of cell proliferation within a culture. This assay is based on the reduction of yellow tetrazolium salt to purple formazan by mitochondrial reductases enzyme in viable cells, resulting in a color change that confers a change in absorbance. Seven human cell lines were selected for primary evaluation: U373 (glioblastoma-astrocytoma), A549 (lung carcinoma), THP-1 (acute monocytic leukemia), MCF7 (mammary gland adenocarcinoma), SKOV3 (ovarian adenocarcinoma), PC3 (prostate adenocarcinoma) and CCD1079SK (fibroblast, noncancerous but proliferating) (see FIG. 2 and Table 2). Results are expressed in Table 2 as % viability (means±standard deviation of three replicates), with LD50/IC50 values in Tables 3 and 6. […] The maximum DMSO concentration was 1% at 100 μg/ml with 5% SDS used as a known toxic inducer.
(§2) Experimental: Stock solutions of the test compounds were prepared in dimethylsulfoxide (DMSO) at 10 mg/ml and stored at −20° C. until used. This preparation ensures that the DMSO content delivered to cells in culture never exceeds 1%. Appropriate cells number, based on previous assays, were seeded in 96 well plate and incubated with test compounds (up to 8 log concentrations, 0 to 50 or 100 μg/ml) for 72 h. Cell proliferation was initially assessed using a standard colorimetric indicator of metabolic activity (CIMA) assay. In this assay, reduction of yellow tetrazolium salt (MTT) to purple formazan by mitochondrial reductases enzymes in viable cells were measured as change in absorbance (λ=500-600).
(§3) Seven human cell lines were evaluated: U373 (glioblastoma-astrocytoma), A549 (lung carcinoma), PC3 (prostate adenocarcinoma), THP1 (acute monocytic leukemia), MDA-MB-231 (mammary gland adenocarcinoma), SKOV3 (ovarian adenocarcinoma) and CCD1079Sk (normal skin fibroblast) cells.

[2] = tested on: U373 (glioblastoma-astrocytoma); experiment: as above; type: cell-based, human; conditions: Homo sapiens, U373 MG
Description: as §1, §2, §3

[3] = tested on: PC3 (prostate adenocarcinoma); experiment: as above; type: cell-based, human; conditions: Homo sapiens
Description: as §1, §2, §3

[4] = tested on: THP-1 (acute monocytic leukemia); experiment: as above; type: cell-based, human; conditions: Homo sapiens
Description: as §1, §2, §3

A549 (lung carcinoma) = experiment: as above; type: cell-based, human; conditions: Homo sapiens
Description: as §1, §2, §3

[5] = tested on: SKOV3 (ovarian adenocarcinoma); experiment: as above; type: cell-based, human; conditions: Homo sapiens
Description: as §1, §2, §3

[6] = tested on: CCD1079SK (fibroblast, noncancerous but proliferating); experiment: as above; type: cell-based, human; conditions: Homo sapiens, Fibroblast; 1079SK; 72 h
Description: as §1, §2, §3

[7] = Murine flank tumour model, synthesized compound (II) (DHODO): body weights; type: in vivo, nude mice (strain J:NU)
Description: To establish the tumours, MDA-MB-231 breast cancer cells (2.5 million cells in 100 pl 50:50 matrigel:DMEM) were injected subcutaneously into both right and left flanks. Tumours were evaluated over a 2-week period until sufficient volume growth (approximately 20 mm3) for subsequent analysis had occurred. During this period, body weights were measured twice weekly. Mice with established tumours were treated every second day by intraperitoneal injections of test compounds over a 4-week time course. From each group a minimum of 15 tumours were selected for analysis. Tumours were measured weekly using external calipers and volumes established using the modified ellipsoidal formula: tumour volume=0.5 (length×width2). In addition, body weights and general animal health were assessed twice weekly during the treatment period. At study termination, mice were sacrificed and tumours excised from the flank was weighed. To evaluate tumour metastasis, an explorative necropsy was conducted in each mouse and the presence and frequency of additional tumours at sites distal to the flank were assessed.

tumour cell lines = experiment: CIMA assay, overall statements on the panel of human cell lines; type: cell-based; conditions: synthetic compound, 72 h, listed as Synthesized compound II
Description: Prepared extracts were assessed following chronic exposure conditions in which cells were seeded at 2×10^3 cells/well (96 wells-plate) and incubated with test compounds for 72 h. Each compound was evaluated over a range of concentrations (0, 10, 25, 50 or 100 μg/ml). Cell proliferation was initially assessed using a standard colorimetric indicator of metabolic activity (CIMA) assay. In this assay, tetrazole reduction was evaluated as a measure of metabolic function that evaluates mitochondrial activity to determine the extent of cell proliferation within a culture. This assay is based on the reduction of yellow tetrazolium salt to purple formazan by mitochondrial reductases enzyme in viable cells, resulting in a color change that confers a change in absorbance. […]
Crude extract #1 was fractionated into five fractions by C-18 SPE column separation using 15 ml each of 5% methanol (fraction 1), 25% methanol (fraction 2), 50% methanol (fraction 3), 100% methanol (fraction 4) and methanol:dichloromethane (1:1) (fraction 5). Extracts were fractionated and the resulting fractions were evaluated using CIMA assay. […]
Experimental: Stock solutions of the test compounds were prepared in dimethylsulfoxide (DMSO) at 10 mg/ml and stored at −20° C. until used. […] Cell proliferation was initially assessed using a standard colorimetric indicator of metabolic activity (CIMA) assay. […]

[8] = tested on: MDA-MB-231 (mammary gland adenocarcinoma); experiment: CIMA assay (MTT, 72 h); type: cell-based, human; conditions: Homo sapiens, MDA-MB-231
Description: Experimental: Stock solutions of the test compounds were prepared in dimethylsulfoxide (DMSO) at 10 mg/ml and stored at −20° C. until used. This preparation ensures that the DMSO content delivered to cells in culture never exceeds 1%. […] Cell proliferation was initially assessed using a standard colorimetric indicator of metabolic activity (CIMA) assay. In this assay, reduction of yellow tetrazolium salt (MTT) to purple formazan by mitochondrial reductases enzymes in viable cells were measured as change in absorbance (λ=500-600).
as §3

[9] = read-out: average cell viability
[10] = THP-1, read-out: average cell viability
[11] = A549, read-out: average cell viability
[12] = SK-OV-3, read-out: average cell viability

## CCCCC[C@H](O)[C@H](O)/C=C/[C@@H]1CCCCCCCC(=O)O1 [compound (II), 12R, 13S-Dihydroxy-10-Octadecen-9S-olide]
[1]
  viability at 72 h, 1 ug/mL: 91%
  viability at 72 h, 10 ug/mL: 84%
  viability at 72 h, 50 ug/mL: 90%
  viability at 72 h, 100 ug/mL: 17%
[2]; [9]
  viability at 1 µg/mL: 90%
  viability at 10 µg/mL: 85%
  viability at 50 µg/mL: 68%
  viability at 100 µg/mL: 3%
[2]; U373, 72 h
  IC50: 39.1 µg/mL (≈ 125 µM)
[3]; [9]
  viability at 1 µg/mL: 100%
  viability at 10 µg/mL: 93%
  viability at 50 µg/mL: 97%
  viability at 100 µg/mL: 19%
[3]; PC3, 72 h
  IC50: 37.7 µg/mL (≈ 121 µM)
[4]; [10]
  viability at 1 µg/mL: 96%
  viability at 10 µg/mL: 84%
  viability at 50 µg/mL: 68%
  viability at 100 µg/mL: 44%
[4]; THP-1, 72 h
  IC50: 25.9 µg/mL (≈ 82.8 µM)
A549 (lung carcinoma); [11]
  viability at 1 µg/mL: 95%
  viability at 10 µg/mL: 93%
  viability at 50 µg/mL: 92%
  viability at 100 µg/mL: 61%
A549 (lung carcinoma); A549, 72 h
  IC50: 22 µg/mL (≈ 70.5 µM)
[5]; [12]
  viability at 1 µg/mL: 97%
  viability at 10 µg/mL: 97%
  viability at 50 µg/mL: 94%
  viability at 100 µg/mL: 85%
[5]; SK-OV-3, SKOV3, 72 h
  IC50: 67.7 µg/mL (≈ 217 µM)
[6]
  IC50: 34.9 µg/mL (≈ 112 µM)
[7]; 1 mg/kg
  Body weight change Δ over the four-week trial: 0.6 g
[7]; 1 mg/kg, Week 1
  Body weight: 21.9 g
[7]; 1 mg/kg, Week 2
  Body weight: 22.5 g
[7]; 1 mg/kg, Week 3
  Body weight: 22.1 g
[7]; 1 mg/kg, Week 4
  Body weight: 22.5 g
[7]; 5 mg/kg
  Body weight change Δ over the four-week trial: 0.9 g
[7]; 5 mg/kg, Week 1
  Body weight: 23.8 g
[7]; 5 mg/kg, Week 2
  Body weight: 24.8 g
[7]; 5 mg/kg, Week 3
  Body weight: 24.3 g
[7]; 5 mg/kg, Week 4
  Body weight: 24.9 g
[7]; 10 mg/kg
  Body weight change Δ over the four-week trial: 0.8 g
[7]; 10 mg/kg, Week 1
  Body weight: 24.2 g
[7]; 10 mg/kg, Week 2
  Body weight: 24.8 g
[7]; 10 mg/kg, Week 3
  Body weight: 24.3 g
[7]; 10 mg/kg, Week 4
  Body weight: 25.0 g
Tumour cell lines
  antiproliferative activity in tumour cell lines: significantly reduced tumour cell viability and growth in vitro
[8]; MDA-MB, 1 ug/mL, read-out: average cell viability
  viability at 1 µg/mL: 101%
[8]; MDA-MB, 10 ug/mL, read-out: average cell viability
  viability at 10 µg/mL: 96%
[8]; MDA-MB, 50 ug/mL, read-out: average cell viability
  viability at 50 µg/mL: 66%
[8]; MDA-MB, 100 ug/mL, read-out: average cell viability
  viability at 100 µg/mL: 20%
[8]; 72 h
  IC50: 34.3 µg/mL (≈ 110 µM)
